Laboratory results: US10233186B2, “Inhibitors of activin receptor-like kinase” (BLUEPRINT MEDICINES CORPORATION, priority 2016, dated 2019)
pIC50: −log10 of the molar value.

What was measured:
[1] = molecular target: T1, ALK2 R206H (GST-tagged mutant ALK2) (Homo sapiens, UniProt Q04771, R206H); assay: ALK binding assay (LANTHASCREEN TR-FRET competitive binding, displacement of Kinase Tracer 178); conditions: ALK2 R206H, LANTHASCREEN TR-FRET competitive binding; read-out: Binding Assay (IC50)
T1 construct: purchased Carna Bioscience or ThermoFisher 09-148 or PV6232
T1 sequence (Q04771 21-509 R206H): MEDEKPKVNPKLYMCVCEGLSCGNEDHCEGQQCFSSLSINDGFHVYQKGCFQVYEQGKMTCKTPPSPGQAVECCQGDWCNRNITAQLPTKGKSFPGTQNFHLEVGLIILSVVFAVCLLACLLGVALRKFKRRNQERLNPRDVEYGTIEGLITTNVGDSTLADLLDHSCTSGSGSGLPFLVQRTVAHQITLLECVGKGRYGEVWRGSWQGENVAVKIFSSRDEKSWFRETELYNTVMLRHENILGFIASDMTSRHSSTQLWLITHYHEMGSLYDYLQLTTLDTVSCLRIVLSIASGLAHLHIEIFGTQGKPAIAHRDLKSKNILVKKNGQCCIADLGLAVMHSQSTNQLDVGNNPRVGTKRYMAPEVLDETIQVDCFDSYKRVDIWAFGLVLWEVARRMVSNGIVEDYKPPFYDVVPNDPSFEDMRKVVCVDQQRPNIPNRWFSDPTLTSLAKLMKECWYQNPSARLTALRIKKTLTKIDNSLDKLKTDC

human ALK2 R206H = molecular target: T2, human ALK2 R206H (Homo sapiens, UniProt Q04771, R206H); assay: Cell-based ALK2-R206H cell activity assay (Smad1-Ser463/Ser465 phosphorylation by AlphaLISA in HEK293-ALK2-R206H cells); conditions: read-out: Cell Line (Cell Assay IC50)
T2 construct: expressed in transfected cells; host or cells: HEK293 (ATCC CRL1573), lentivirus transduction, blasticidin selection
T2 sequence (Q04771 21-509 R206H): T1 sequence (Q04771 21-509 R206H)
Procedure: A HEK293 (ATCC, Cat^# CRL1573) based stable cell line expressing human ALK2 R206H cDNA (synthesized by GeneScript, Piscataway, N.J.) and a FLAG tag at the C-terminus was generated by lentivirus transduction and subsequent blasticidin (Life Technologies, Cat^#-A1113902) selection at 10 μg/ml for >2 wks. This cell line was named HEK293-ALK2-R206H.
Test compounds were first diluted to 4 mM or 0.4 mM and then serially diluted 3-fold into 10 different concentrations using DMSO. […] Two μl of the diluted compounds were then dispensed into the HEK293-ALK2-R206H cell-containing wells of the microplates in duplicates. In this way, each compound was tested in 10 doses (3-fold serial dilution with the top concentration being 10 μM or 1 μM). Liquid handling was achieved using a Bravo Automated Liquid Handling Platform (Agilent Technologies). DMSO without compound was used as a negative control. The positive control was 1 μM LDN193189, a known bone morphogenetic protein (BMP inhibitor).
The 10-point dose response curve was used to calculate the IC50 values.
Blank values in the table indicate that the particular compound was not tested in this assay.

SMILES	pIC50 [1]	pIC50 (human ALK2 R206H)
COC1(c2ccc(-c3cc4c(N5CCN(C(=O)[C@H]6C[C@H](C#N)C6)CC5)ccnn4c3)cc2)CCN([C@@H](C)CO)CC1 [Compound 740]	> 8.00	> 7.00
COC[C@H](C)N1CCC(OC)(c2ccc(-c3cc4c(N5CCN(C(=O)[C@H]6C[C@H](C#N)C6)CC5)ccnn4c3)cc2)CC1 [Compound 745]	> 8.00	> 7.00
CC(C)N1CCC[C@H](c2ccc(-c3cc4c(N5CCN(C(=O)OC6COC6)CC5)ccnn4c3)nc2)C1 [Compound 636]	> 8.00	> 7.00
CC(=O)N1CCC(c2ccc(-c3cc4c(N5CCN(C(=O)C6CC6)CC5)ccnn4c3)cc2)CC1 [Compound 245]	7.30 to 8.00	6.30 to 7.00
CC(C)N1CCCCC1c1ccc(-c2cc3c(N4CCN(C(=O)C5CC5)CC4)ccnn3c2)cc1 (stereo not shown) [Compound 257]	> 8.00	> 7.00
CCN1CCCC(Oc2ccc(-c3cc4c(N5CCN(C(=O)C6CC6)CC5)ccnn4c3)cc2)C1 (stereo not shown) [Compound 269]	> 8.00	> 7.00
CCOC1(c2ccc(-c3cc4c(N5CCN(C(=O)NC(C)C)CC5)ccnn4c3)nc2)CCN(C(C)C)CC1 [Compound 715]	> 8.00	> 7.00
CCNC(=O)N1CCN(c2ccnn3cc(-c4ccc(C5CCN(C(C)C)CC5)cc4)cc23)CC1 [Compound 275, N-ethyl-4-(6-(4-(1-isopropylpiperidin-4-yl)phenyl)pyrrolo[1,2-b]pyridazin-4-yl)piperazine-1-carboxamide]	> 8.00	> 7.00
O=C(C1CC1)N1CCN(c2ccnn3cc(-c4cnn(C5CCNC5)c4)cc23)CC1 (stereo not shown) [Compound 104]	> 8.00	6.30 to 7.00
COC1(c2ccc(-c3cc4c(N5CCN(C(=O)NC(C)C)CC5)ccnn4c3)nc2)CCN([C@H](C)COC(F)F)CC1 [Compound 750]	> 8.00	> 7.00
CCN1CCC(c2ccc(-c3cc4c(N5CCN(C(=O)[C@H]6C[C@](C)(O)C6)CC5)ccnn4c3)cc2)CC1 [Compound 384]	> 8.00	> 7.00
COC1(c2ccc(-c3cc4c(N5CCN(C(=O)C6CC6)CC5)ccnn4c3)nc2)CCNCC1 [Compound 491]	> 8.00	> 7.00
CC(C)N1CCC(c2ccc(-c3cc4c(N5CCN(C(=O)SC6COC6)CC5)ccnn4c3)cc2)CC1 [Compound 832]	> 8.00	> 7.00
CC(C)N1CCC(c2ccc(-c3cc4c(N5CCN(C(=O)NCC(C)(C)C)CC5)ccnn4c3)cc2)CC1 [Compound 664]	> 8.00	6.30 to 7.00
CCOC(=O)N1CCN(c2ccnn3cc(-c4ccc(C5CNCC5F)cc4)cc23)CC1 (stereo not shown) [Compound 145]	> 8.00	> 7.00
COC(=O)N1CCN(c2ccnn3cc(-c4ccc(C5CCN(C(C)C)CC5)cc4)cc23)CC1 [Compound 232]	> 8.00	6.30 to 7.00
O=C(C1CC1)N1CCN(c2ccnn3cc(-c4ccc(OC5CNC5)cc4)cc23)CC1 [Compound 115]	> 8.00	6.30 to 7.00
CC(C)N1C[C@H](c2ccc(-c3cc4c(N5CCN(C(=O)C6CC6)CC5)ccnn4c3)cc2)C[C@@H]1C [Compound 507]	> 8.00	> 7.00
CCOC1(c2ccc(-c3cc4c(N5CCN(C(=O)OC6COC6)CC5)ccnn4c3)nc2)CCN(C2COC2)CC1 [Compound 875]	> 8.00	> 7.00
CCCNC(=O)N1CCN(c2ccnn3cc(-c4ccc(C5CCN(C(C)C)CC5)cc4)cc23)CC1 [Compound 341]	> 8.00	> 7.00
CO[C@@]1(c2ccc(-c3cc4c(N5CCN(C(=O)NC(C)C)CC5)ccnn4c3)cc2F)CCCN(C(C)C)C1 [Compound 724]	> 8.00	> 7.00
O=C(C1CC1)N1CCN(c2ccnn3cc(-c4ccc(C5CNC5)cc4)cc23)CC1 [Compound 102]	> 8.00	6.30 to 7.00
CC(C)N1CCC(c2ccc(-c3cc4c(N5CCN(C(=O)OC6COC6)[C@H](C)C5)ccnn4c3)cc2)CC1 [Compound 669]	> 8.00	> 7.00
[2H]C([2H])([2H])C([2H])([2H])OC(=O)N1CCN(c2ccnn3cc(-c4ccc([C@]5(OCC)CCCNC5)cn4)cc23)CC1 [Compound 794]	> 8.00	> 7.00

SMILES	pIC50 [1]	pIC50 (human ALK2 R206H)
COC1(c2ccc(-c3cc4c(N5CCN(C(=O)OC6COC6)CC5)ccnn4c3)nc2)CCN(C(C)CF)CC1 (stereo not shown) [Compound 863]	> 8.00	> 7.00
CC(C)NC(=O)N1CCN(c2ccnn3cc(-c4ccc(C5(F)CCN(C(C)C)CC5)cc4)cc23)CC1 [Compound 648]	> 8.00	> 7.00
CC[C@@H](C)N1CCC[C@@H](c2ccc(-c3cc4c(N5CCN(C(=O)C6CC6)CC5)ccnn4c3)cc2)C1 [Compound 562]	> 8.00	> 7.00
NC1(c2ccc(-c3cc4c(N5CCN(C(=O)C6CC6)CC5)ccnn4c3)cc2)COC1 [Compound 755]	> 8.00	6.30 to 7.00
CCOC(=O)N1CCN(c2ccnn3cc(-c4ccc(C5(OC)CCN(C(C)C)CC5)cn4)cc23)CC1 [Compound 820]	> 8.00	> 7.00
O=C(C1CC1)N1CCN(c2ccnn3cc(-c4ccc(N5CCNCC5C(F)F)cc4)cc23)CC1 (stereo not shown) [Compound 297]	> 8.00	> 7.00
CC(C)NC(=O)N1CCN(c2ccnn3cc(-c4ccc([C@@H]5CCCN(C(C)C)C5)cc4)cc23)CC1 [Compound 577]	> 8.00	> 7.00
CO[C@@]1(c2ccc(-c3cc4c(N5CCN(C(=O)OC6COC6)CC5)ccnn4c3)nc2)CCCN(C(C)C)C1 [Compound 718]	> 8.00	> 7.00
O=C(C1CC1)N1CCN(c2ccnn3cc(-c4ccc(N5CCN6CCOCC6C5)cc4)cc23)CC1 (stereo not shown) [Compound 315]	7.30 to 8.00	6.30 to 7.00
CC(C)N1CC[C@@](O)(c2ccc(-c3cc4c(N5CCN(C(=O)C6CC6)CC5)ccnn4c3)nc2)C1 [Compound 526]	> 8.00	> 7.00
CCN1CC[C@@H](c2ccc(-c3cc4c(N5CCN(C(=O)[C@H]6C[C@H]6F)CC5)ccnn4c3)cc2)C1 [Compound 227]	> 8.00	> 7.00
CCN1CC[C@H](c2ccc(-c3cc4c(N5CCN(C(=O)C6CC6)CC5)ccnn4c3)cc2)C1 [Compound 149]	> 8.00	> 7.00
CCOC(=O)N1CCN(c2ccnn3cc(-c4ccc([C@H]5CCN(CC)C5)cc4)cc23)CC1 [Compound 181]	> 8.00	> 7.00
CC(C)N1C[C@@H](c2ccc(-c3cc4c(N5CCN(C(=O)C6CC6)CC5)ccnn4c3)cc2)C[C@H]1C [Compound 505]	> 8.00	> 7.00
COC[C@H](C)N1CCC(OC)(c2ccc(-c3cc4c(N5CCN(C(=O)C6CC6)CC5)ccnn4c3)nc2)CC1 [Compound 711]	> 8.00	> 7.00
COC1(c2ccc(-c3cc4c(N5CCN(C(=O)NC(C)C)CC5)ccnn4c3)cc2)CCN([C@@H](C)COC(F)F)CC1 [Compound 892]	> 8.00	> 7.00
CC(C)N1CCC(c2ccc(-c3cc4c(N5CCN(C(=O)O[C@H]6CCOC6)CC5)ccnn4c3)cc2)CC1 [Compound 667]	> 8.00	> 7.00
CCOC(=O)N1CCN(c2ccnn3cc(-c4ccc(C5(OC)CCN(C(C)C)CC5)cc4F)cc23)CC1 [Compound 701, ethyl 4-(6-(2-fluoro-4-(1-isopropyl-4-methoxypiperidin-4-yl)phenyl)pyrrolo[1,2-b]pyridazin-4-yl)piperazine-1-carboxylate]	> 8.00	> 7.00
CCN1CCN(c2ccc(-c3cc4c(N5CCN(C(=O)C6CC6)CC5)ccnn4c3)cc2)CC1 [Compound 213]	> 8.00	> 7.00
CCNC(=O)N1CCN(c2ccnn3cc(-c4ccc([C@]5(O)CCCN(C(C)C)C5)cn4)cc23)CC1 [Compound 605]	> 8.00	> 7.00
CCOC(=O)N1CCN(c2ccnn3cc(-c4ccc([C@]5(F)CCCN(C(C)C)C5)cn4)cc23)CC1 [Compound 613]	> 8.00	> 7.00
CC[C@H](C)NC(=O)N1CCN(c2ccnn3cc(-c4ccc(C5CCN(C(C)C)CC5)cc4)cc23)CC1 [Compound 393]	> 8.00	6.30 to 7.00
CCNC(=O)N1CCN(c2ccnn3cc(-c4ccc([C@@]5(OCC)CCCN(C(C)C)C5)cc4)cc23)CC1 [Compound 674]	> 8.00	> 7.00
